Legend:
[1] = tested on: chemically regulatable chimeric genes coding for GUS, AHAS or BT; assay: Primer extension assay for mRNA of chemically regulatable chimeric genes; format: in vivo; details: callus or regenerated plant material from transgenic plants; level proportional to amount of regulator applied
Experimental: 50 g of total RNA is lyophilized in a 500 l Eppendorf tube. The RNA is resuspended in 30 l of radiolabeled probe solution and heated to 70′ C. for 10 minutes. The tube is slowly cooled to 37° C. and allowed to incubate overnight. Without removing the tube from the 37° C. water bath, 2 l of 10×reverse-transcriptase buffer (500 mM Tris-HCl, pH 7.5, 400 mM KCl, 30 mM MgCl2), 1 l 5 mg/ml bovine serum albumin, 5 l 100 mM dithiothreitol, 5 l 10×dNTPs (10 mM of each dNTP in H2O), 3 l H 20, 2 l RNasin (80 units), and 2 l reverse transcriptase (400 units) are added and the reaction is incubated at 37° C. for 30 minutes. To stop the reaction, 5 l of 3 M sodium acetate, pH 5, and 150 l absolute ethanol are added. The tube is left at −20° C. for 30 minutes, the precipitate is collected by centrifugation, washed with 80% ethanol and allowed to air-dry. The precipitate is resuspended in 10-20 l of loading dye (90% formamide, 0.05% bromophenol blue, 0.05% xylene cyanol, 1 mM EDTA) and the extension products are separated on a 6% sequencing gel (Maniatis, T. et al., supra). Extension products are visualized by autoradiography.
Plant materials induced and harvested as in Examples 140 to 142 are assayed for the induction of mRNA species by the isolation of RNA and the primer extension assay as described in Example 6.
The level of mRNA is proportional to the amount of regulator applied.

[2] = tested on: PR-1 promoter-LUC gene fusion; assay: Chemical induction of the Arabidopsis PR-1 promoter-LUC gene fusion; format: in vivo
Excerpt: pAtPR1-R was cleaved with XhoI and SacI and transferred to SalI/SacI cleaved pCIB200 to create a binary vector construction (pAtPR1-S) suitable for Arabidopsis transformation (see example 28). pAtPR1-S was then transferred to Agrobacterium tumefaciens strain A136/pCIB542 for transfer to Arabidopsis Dijon-0 using the method described by Wen-jun and Forde, Nucl. Acids Res. 17: 8385-8386 (1989). T2 or […] lines carrying the PR1-LUC transgene in the homozygous state were generated for chemical induction analysis.
Leaves of transgenic Arabidopsis lines carrying the PR-1 promoter-LUC gene fusion were treated by spraying with 0.15 g/ml INA (isonicotinic acid) for 48 h. Five days later, sprayed leaves were analyzed for luciferase activity using the Promega Luciferase Assay System (Cat. #E 1500). […] In other assays, luciferase activity was measured by imaging lines for bioluminescence using intensified cameras (VIM) and photon-counting image processors (ARGUS-50 or ARGUS-100) from Hamamatsu Photonic Systems (Bridgewater, N.J.). Leaves were sprayed with INA and subsequently with a 5 mM solution of D-luciferin (Analytical Bioluminescence Laboratories, San Diego, Calif.) 24 h before and then immediately before imaging.

[3] = tested on: PR-1a promoter fused to the GUS reporter gene; assay: Chemical regulation of PR-1a promoter/GUS in nahG-expressing plants; format: in vivo; details: progeny of PR-1a promoter/GUS plants crossed to nahG-3, -8 and -10
Excerpt: Consequently, the chemical regulation of the PR-1a gene promoter can be utilized without the activation of the endogenous cell signal SA.

[4] = tested on: SAR response; assay: Chemical induction of SAR in nahG-expressing plants; format: in vivo, Nicotiana tabacum cv Xanthi-nc; details: plants of lines nahG-3, -8 and -10 (blocked in SAR response to disease infection) treated with the inducing chemical
Excerpt: Three lines, nahG-3, -8 and -10, were shown above to express high levels of nahG mRNA and salicylate hydroxylase protein, and to be blocked in their SAR response to disease infection.

[5] = tested on: PR-1a promoter fused to a gene encoding the delta-endotoxin of Bacillus thuringensis; assay: Chemical regulation of PR-1a promoter/Bacillus thuringiensis delta-endotoxin gene in nahG-expressing plants; format: in vivo; details: progeny of PR-1a promoter/delta-endotoxin plants crossed to nahG-3, -8 and -10
[6] = tested on: salicylic acid; assay: Antagonism of the salicylic acid cell signal on exogenous application to a plant; format: in vivo; details: applied exogenously to a plant
Excerpt: Those skilled in the art will appreciate that other means can be employed to achieve the same effect. For instance, a second method involves the expression or overexpression in a transformed plant of a gene encoding an enzyme which catalyzes the modification; e.g., degradation, of a metabolic precursor of the signal molecule so that the plant is rendered incapable of producing the signal molecule. A third method involves the external application to the plant of antagonists of the target cell signal. […] Instead, inhibition of the cell signal response is effected. […] See, Yang and Hoffman, Ann. Rev. Plant Physiol. 35:155-189 (1984).

For O=C(O)c1cc(Cl)nc(Cl)c1 [2,6-dichloroisonicotinic acid], the “level of mRNA of the chimeric gene (GUS, AHAS or BT primer), primer extension assay” value (“level of mRNA of the chimeric gene” below) [1] was “elevated levels of mRNA”.

With O=C(O)c1ccncc1 [INA, isonicotinic acid] the “bioluminescence (imaging, photon counting)” value ([2]; compared to water-treated controls, D-luciferin 5 mM) was “strongly induced bioluminescence” and the “luciferase activity, induction over controls” value ([2]; leaves sprayed with 0.15 g/ml for 48 h, analyzed five days later, Promega Luciferase Assay System) was 144 fold.

In the case of CCC(C)N(N)C(=O)c1cccc2nnsc12 (centres unmarked) [benzo-1,2,3-thiadiazole-7-carboxylic acid N-sec-butylhydrazide], the “level of mRNA of the chimeric gene” value [1] is reported as “elevated levels of mRNA”.

In the case of O=C(O)c1cccc2nnsc12 [benzo-1,2,3-thiadiazole-7-carboxylic acid], the GUS expression [3] is reported as “express GUS”, the SAR response [4] is reported as “shown to possess the SAR response” and the endotoxin gene expression [5] is reported as “express the endotoxin gene”. The “level of mRNA of the chimeric gene” value [1] was “elevated levels of mRNA”.

For O=C(OCc1ccccc1)c1cccc2nnsc12 [benzyl benzo-1,2,3-thiadiazole-7-carboxylate], the “level of mRNA of the chimeric gene” value [1] was “elevated levels of mRNA”.

In the case of CCCOC(=O)c1cccc2nnsc12 [n-propyl benzo-1,2,3-thiadiazole-7-carboxylate], the “level of mRNA of the chimeric gene” value [1] is reported as “elevated levels of mRNA”.

CC[Si](CC)(CC)c1ccccc1C(=O)O [o-triethylsilyl benzoic acid] was tested, and the “effect on the salicylic acid cell signal” value [6] was “antagonistic effect”.
